Experimental data reported in patent publication US20240292837A1, “CHROMONE DERIVATIVES AS ATTRACTANTS AND REPELLENTS OF BLOOD-SUCKING, BITING INVERTEBRATES” (CENTRE NATIONAL DE LA RECHERCHE SCIENTIFIQUE, priority 2021, published 2024).

How the values were obtained:
Aedes albopictus [1] = assay: Evaluation of the repellent and/or attractant effect in a tunnel olfactometer; type: in vivo; details: for Control (±SD), mean number of mosquitoes in the control zone / Treated/Product (±SD), mean number of mosquitoes in the treated zone / Treated (±SD), mean number of mosquitoes in the treated zone: 15 females; for RI (%) repulsion index / Repulsion index 5 mg deposition / Repulsion index 10 mg deposition / Repulsion index 30 mg deposition / KI (%) kairomone index: negative = attractant; for repellent or attractant effect (in words): over the doses tested
Excerpt: The tunnel olfactometer is a 1 m long glass parallelepiped with a 5×5 cm side. The tube is equipped with 3 openings: two on each side, one for feeding in the paper impregnated with the product to be tested, and the other for the paper containing a control. The opening in the middle is for feeding in mosquitoes. Both ends of the tube are closed by covers.
The olfactometer is divided into three compartments or zones: • a neutral zone in the middle; • a test or treated area which is on the side of depositing the product; and • a control area which is located on the side of depositing the control.
For each test, 15 Aedes albopictus females (aged 5 to 12 days) are fed into the neutral zone of the tunnel olfactometer. Mosquitoes are kept for 10 minutes for a time of adaptation. Papers impregnated and dried with a solution of product in ethanol and pure ethanol as a reference are fed in, then the barriers are opened to allow mosquitoes to circulate freely inside the tube. Three test repetitions were carried out for each product. A repetition lasts 20 minutes and the results observed were recorded every 5 minutes.
The values measured are the activity index and the repulsion index. The activity index (Al) describes the percentage of mosquitoes in the control zone (T) and in the treated zone (P) with respect to the total number of mosquitoes tested. Said value should be greater than 30% for the test to be considered significant.
The repulsion index (RI) represents the percentage of the difference in the number of mosquitoes in the control part and in the treated part divided by the sum of the two values. A negative value of the parameter (RI) indicates an attractant activity (kairomone index. KI) of the product tested.
[formula] • Al: Activity index • RI: Repulsion index • T: Number of mosquitoes in the control area • P: Number of mosquitoes in the treated area

Aedes albopictus [2] = assay: Evaluation of the combination 4-hydroxycoumarin / 7-nonyloxychromone (KI vs amount deposited, FIG. 1); type: in vivo
Excerpt: Said figure represents the IK (in %) as a function of the amount deposited (in mg).
It is possible to combine a chromone compound with other compounds of different structure.

SMILES | AI (%) activity index (Aedes albopictus [1]; dose 5 mg/ml) [%] | Control (±SD), mean number of mosquitoes in the control zone (Aedes albopictus [1]; dose 5 mg/ml in treated zone) | Treated/Product (±SD), mean number of mosquitoes in the treated zone (Aedes albopictus [1]; dose 5 mg/ml) | AI (%) activity index (Aedes albopictus [1]; dose 10 mg/ml) [%] | Control (±SD), mean number of mosquitoes in the control zone (Aedes albopictus [1]; dose 10 mg/ml in treated zone) | Treated/Product (±SD), mean number of mosquitoes in the treated zone (Aedes albopictus [1]; dose 10 mg/ml) | AI (%) activity index (Aedes albopictus [1]; dose 30 mg/ml) [%] | Control (±SD), mean number of mosquitoes in the control zone (Aedes albopictus [1]; dose 30 mg/ml in treated zone) | Treated/Product (±SD), mean number of mosquitoes in the treated zone (Aedes albopictus [1]; dose 30 mg/ml) | repellent or attractant effect (in words) (Aedes albopictus [1]) | Repulsion index 5 mg deposition (Aedes albopictus [1]) [%] | Repulsion index 10 mg deposition (Aedes albopictus [1]) [%] | Repulsion index 30 mg deposition (Aedes albopictus [1]) [%] | KI (%) kairomone index (Aedes albopictus [1]; dose 5 mg/ml) [%] | KI (%) kairomone index (Aedes albopictus [1]; dose 10 mg/ml) [%] | KI (%) kairomone index (Aedes albopictus [1]; dose 30 mg/ml) [%] | further results
CCC(C)Oc1ccc2c(=O)ccoc2c1 (racemic) [7-sec-butoxychromone] | 71.1 | 7.3 ± 0.4 | 3.3 ± 0.1 | 71.8 | 7.2 ± 0.9 | 3.6 ± 0.4 | 78 | 8.3 ± 0.5 | 3.4 ± 0.9 | repellent at any dose |  |  |  |  |  |  | RI (%) repulsion index (Aedes albopictus [1]; dose 5 mg/ml): 37.6%; RI (%) repulsion index (Aedes albopictus [1]; dose 10 mg/ml): 37.9%; RI (%) repulsion index (Aedes albopictus [1]; dose 30 mg/ml): 56.1%; AI (%) activity index (Aedes albopictus [1]; dose 60 mg/ml): 90.6%; Control (±SD), mean number of mosquitoes in the control zone (Aedes albopictus [1]; dose 60 mg/ml in treated zone): 11.8 ± 0.7; Treated/Product (±SD), mean number of mosquitoes in the treated zone (Aedes albopictus [1]; dose 60 mg/ml): 1.8 ± 0.2; RI (%) repulsion index (Aedes albopictus [1]; dose 60 mg/ml): 72.9%
CCCCCCCC(C)Oc1ccc2c(=O)ccoc2c1 (racemic) [7-sec-nonyloxychromone] | 83.9 | 2.2 ± 0.3 | 10.4 ± 0.1 | 91.7 | 2.5 ± 0.5 | 11.3 ± 0.0 | 88.3 | 4.8 ± 0.4 | 8.4 ± 0.2 | stays attractant | −65.8 | −63.7 | −27.1 | −65.8 | −63.6 | −27.1 | AI (%) activity index (Aedes albopictus [1]; dose 0.1 mg/ml): 91.1%; Control (±SD), mean number of mosquitoes in the control zone (Aedes albopictus [1]; dose 0.1 mg/ml in treated zone): 2.5 ± 0.2; Treated (±SD), mean number of mosquitoes in the treated zone (Aedes albopictus [1]; dose 0.1 mg/ml): 11.2 ± 0.6; KI (%) kairomone index (Aedes albopictus [1]; dose 0.1 mg/ml): −63.5%; AI (%) activity index (Aedes albopictus [1]; dose 2 mg/ml): 91.1%; Control (±SD), mean number of mosquitoes in the control zone (Aedes albopictus [1]; dose 2 mg/ml in treated zone): 1.4 ± 0.4; Treated (±SD), mean number of mosquitoes in the treated zone (Aedes albopictus [1]; dose 2 mg/ml): 12.3 ± 0.0; KI (%) kairomone index (Aedes albopictus [1]; dose 2 mg/ml): −79.8%; maximum value of KI (Aedes albopictus [1]; dose of 2 mg/ml, given as magnitude): ~80%; attractant activity (KI) (Aedes albopictus [1]; up to 10 mg/ml, given as magnitude): above 65%; change of attractant effect with dose (in words) (Aedes albopictus [2]; from the 10 mg dose onwards): significant decrease
CCCC(C)Oc1ccc2c(=O)ccoc2c1 (racemic) [7-sec-pentoxychromone] | 80.1 | 2.5 ± 0.3 | 9.5 ± 0.2 | 88.3 | 3.4 ± 0.4 | 9.8 ± 1.1 | 90 | 4.8 ± 0.4 | 8.7 ± 0.4 | attractant | −59.2 | −47.8 | −28.7 | −59.2 | −47.9 | −28.6 | AI (%) activity index (Aedes albopictus [1]; dose 1 mg/ml): 85%; Control (±SD), mean number of mosquitoes in the control zone (Aedes albopictus [1]; dose 1 mg/ml in treated zone): 3.5 ± 0.5; Treated (±SD), mean number of mosquitoes in the treated zone (Aedes albopictus [1]; dose 1 mg/ml): 9.3 ± 0.7; KI (%) kairomone index (Aedes albopictus [1]; dose 1 mg/ml): −45.6%
O=c1cc(O)c2ccccc2o1 [4-hydroxycoumarin] |  |  |  |  |  |  |  |  |  |  |  |  |  |  |  |  | increase in attraction (Aedes albopictus [2]; higher doses (10 and 30 mg) vs low doses): 10%; kairomone index KI (Aedes albopictus [2]; low dose (or quantity)): ~40%
CCCCCCCCCCOc1ccc2c(=O)ccoc2c1 [7-n-decyloxychromone] |  |  |  | 85 | 3.9 ± 0.3 | 8.8 ± 0.9 |  |  |  |  |  |  |  |  | −37.8 ± 5.2 |  | attractant effect compared with a reference attractant (in words) (Aedes albopictus [1]; same doses): attractant effect equivalent to that of 7-sec-nonyloxychromone
CCN(CC)C(=O)c1cccc(C)c1 [DEET, reference compound] |  |  |  |  |  |  |  |  |  |  | 55.5 | 60.4 | 59.1 |  |  |  | 
